Patent US12479858B2, “Macrocyclic compounds as sting agonists and methods and uses thereof” (Lupin Limited, priority 2019, dated 2025)
Where a name gives a salt, the structure may show the parent alone. Read-outs that look alike come from different tables or passages of the source.

What was measured:
[1] = Apparent solubility/extended kinetic solubility by UHPLC; assay type: physicochemical; settings: aqueous buffer, thermodynamic from solid, phosphate buffer, 37° C.
Protocol: Biological Assay—Determination of Apparent Solubility/Extended Kinetic Solubility by UHPLC
Test sample preparation: About 0.5 mg of the test sample was weighed and transferred in duplicate in 1 mL glass inserts of 96 well plates. 5 μL of DMSO and 1 ml of phosphate buffer were added. Allowed for equilibrium in an orbital shaker at 37° C. for 24 hrs. Later, allowed it cool to room temperature and centrifuged the 96 well plate (at 240×10 RPM for 20 min) and supernatant material was taken into collection plate, covered it with the heat resistant aluminum sheet or supernatant material was directly taken into HPLC sample vial.
Injected diluent as blank and linearity solutions in duplicate. Recorded the chromatograms and plotted the calibration curve, concentration (X-axis) versus Area (y-axis). The correlation coefficient for calibration curve should be not less than 0.95. If above criteria passes, then injected the test samples and recorded the chromatograms. In case saturated peaks are observed, then diluted the test sample with diluent as appropriate.
Calculated the slope and intercept of the calibration curve. From the standard curve, determined the solubility of the sample in μM (micromolar).

[2] = Plasma and tumor compound concentrations in CT26 tumor-bearing mice (LC-MS/MS); assay type: in vivo, BALB/c mice; settings: for concentration at 3.5 h / concentration at 8 h / concentration at 12 h / concentration at 24 h: BALB/c, mouse, intravenous
Protocol: Pharmacokinetic and Pharmacodynamic Profiling and Estimation of Immune Cell Infiltration in Tumors Following Treatment with Compounds 2, 6, 8, 12 and 14
Serum and tumor cytokine levels and corresponding compound concentrations in mouse plasma were determined following single-dose intravenous administration in CT26 (murine colorectal carcinoma) tumor-bearing mice. Briefly, naïve BALB/c mice in the age group of 6-8 weeks were inoculated with 0.1 million CT-26 cells/animal in phosphate buffered saline (PBS), subcutaneously. […] Blood and tumor samples were harvested at various time points up to 24 h post-dose. Tumor samples were homogenized and prepared for cytokine estimation (ELISA) and compound concentration were determined by LC-MS/MS. Serum aliquots and tumor samples were snap-frozen and stored at −80° C. till further analysis. Serum and tumor samples were evaluated for Interferon beta (IFNβ), interleukin-6 (IL-6) and tumor necrosis factor alpha (TNFα) by enzyme linked immunosorbent assay (ELISA) using kits from R & D systems (Quantikine mouse IL-6 and TNFα kits) and PBL biosciences (Verikine mouse IFNβ kit).
Bioanalysis of plasma and tumor samples: Plasma and tumor concentrations of test compounds were determined by LC-MS/MS method. Tumor samples were homogenized utilizing a bead-based homogenizer. Plasma samples and tumor homogenates were extracted using protein precipitation method with organic solution containing respective internal standards. Plasma and tumor concentrations were determined against respective calibration curve. Table 3 indicates the concentration of Compound 2 in plasma and tumor at different administered doses. Table 4 indicates the concentration of Compounds 6, 8, 12, and 14 in plasma and tumor at different administered doses. Table 5 indicates cytokine levels for Compound 2 in serum and tumor at different doses. Table 6 indicates cytokine levels for Compounds 6, 8, 12 and 14 in serum and tumor at 0.375 mpk.

Human STING = target: T1, Human STING (Homo sapiens, UniProt Q86WV6, G230A/H232R/R293Q/R71H); test: Stimulation of human STING signaling in THP1 cell line (THP1-Blue ISG SEAP reporter); assay type: cell-based; settings: THP1-Blue ISG cells, SEAP activity, 18-20 hours
T1 construct: using human THP1-Blue™ ISG SEAP based reporter cell line (Invivogen); host or cells: THP1-Blue ISG cells (human monocytic THP-1 derived SEAP reporter line)
Protocol: Biological Assay—Stimulation of Human STING Signaling in THP1 Cell Line
Compounds were tested for their STING activation potential using human THP1-Blue™ ISG SEAP based reporter cell line (Invivogen). Briefly, THP1-Blue ISG cells (100,000 cells/well) in 96 well plate were treated with varying concentrations of test and reference compounds and incubated at 37° C. with 5% CO2 for 18-20 hours. The control untreated cells were also set up. Post incubation, the cell supernatant was tested for SEAP (Secreted Embryonic Alkaline Phosphatase) activity using the QuantiBlue™ substrate reagent (Invivogen). The formation of blue coloured product was quantified by measuring absorbance at wavelength of 620 nm using PheraStar/Tecan reader. The average of duplicate readouts for each data point was plotted in GraphPad prism 6 against the concentration of test or reference compound to calculate EC50 value. The fold of SEAP induction or increase in luminescence at different data points was estimated against the un-stimulated cell control set.

[3] = plasma, 0.375 mg/kg single i.v., 3.5 h (Table 4), read-out: Plasma Conc.
[4] = plasma, 0.375 mg/kg single i.v., 8 h (Table 4), read-out: Plasma Conc.
[5] = plasma, 0.375 mg/kg single i.v., 12 h (Table 4), read-out: Plasma Conc.
[6] = tumor, 0.375 mg/kg single i.v., 3.5 h (Table 4), read-out: Tumor Conc.
[7] = tumor, 0.375 mg/kg single i.v., 8 h (Table 4), read-out: Tumor Conc.
[8] = tumor, 0.375 mg/kg single i.v., 12 h (Table 4), read-out: Tumor Conc.
[9] = tumor, 0.375 mg/kg single i.v., 24 h (Table 4), read-out: Tumor Conc.
[10] = 0.375 mg/kg single i.v., 24 h (Table 4)

T1 sequence (Q86WV6 whole entry R71H/G230A/H232R/R293Q): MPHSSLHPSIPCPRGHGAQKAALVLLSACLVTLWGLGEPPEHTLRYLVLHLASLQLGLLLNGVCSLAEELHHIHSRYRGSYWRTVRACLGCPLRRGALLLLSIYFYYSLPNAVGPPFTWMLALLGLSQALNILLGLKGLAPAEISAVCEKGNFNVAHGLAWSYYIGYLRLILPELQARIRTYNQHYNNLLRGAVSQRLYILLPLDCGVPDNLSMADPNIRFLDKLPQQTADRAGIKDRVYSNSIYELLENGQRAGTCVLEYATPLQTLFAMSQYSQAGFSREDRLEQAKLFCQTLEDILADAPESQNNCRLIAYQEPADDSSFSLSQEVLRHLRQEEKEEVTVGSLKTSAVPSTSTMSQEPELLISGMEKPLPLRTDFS

Compound | solubility at 24 h [1] [mM] | concentration at 3.5 h [2, 3] [nM] | concentration at 8 h [2, 4] [nM] | concentration at 12 h [2, 5] [nM] | concentration at 3.5 h [2, 6] [nM] | concentration at 8 h [2, 7] [nM] | concentration at 12 h [2, 8] [nM] | concentration at 24 h [2, 9] [nM] | EC50 (Human STING) [nM] | Plasma Conc. [2, 10] | other results
CCn1nc(C)cc1C(=O)Nc1nc2cc(C(N)=O)cc3c2n1C/C=C/Cn1c(NC(=O)c2cc(C)nn2CC)nc2cc(C(=O)N[C@H]4CC[C@H](c5nnn[nH]5)CC4)cc(c21)OC[C@@H](N1C2CCC1COC2)CO3 [Compound 12, (8S,E)-N4-((1R,4S)-4-(1H-tetrazol-5-yl)cyclohexyl)-8-(3-oxa-8-azabicyclo[3.2.1]octan-8-yl)-1,15-bis(1-ethyl-3-methyl-1H-pyrazole-5-carboxamido)-8,9,16,19-tetrahydro-7H-6,10-dioxa-2,14,15a,19a-tetraazacyclopentadeca[3,2,1-cd:8,9,10-c′d′]diindene-4,12-dicarboxamide sodium salt] | 14.2 | 440 ± 50 | 180 ± 50 | 90 ± 20 | 360 ± 130 | 190 ± 80 | 300 ± 120 | 130 ± 40 | 1 to 10 |  | concentration at 24 h ([2]; plasma, 0.375 mg/kg single i.v., 24 h (Table 4), read-out: Plasma Conc.): 20 nM
CCn1nc(C)cc1C(=O)Nc1nc2cc(C(N)=O)cc3c2n1C/C=C/Cn1c(NC(=O)c2cc(C)nn2CC)nc2cc(C(=O)N[C@H]4CC[C@H](C(=O)O)CC4)cc(c21)OCCCO3 [Compound 2, (1R,4R)-4-((E)-12-carbamoyl-1,15-bis(1-ethyl-3-methyl-1H-pyrazole-5-carboxamido)-8,9,16,19-tetrahydro-7H-6,10-dioxa-2,14,15a,19a-tetraazacyclopentadeca[3,2,1-cd:8,9,10-c′d′]diindene-4-carboxamido)cyclohexane-1-carboxylic acid sodium salt] | 3.57 |  |  |  |  |  |  |  | 1 to 10 |  | concentration at 3.5 h ([2]; plasma, 0.093 mg/kg single i.v., 3.5 h, read-out: Plasma Conc.): 110 ± 10 nM; concentration at 8 h ([2]; plasma, 0.093 mg/kg single i.v., 8 h, read-out: Plasma Conc.): 30 nM; concentration at 3.5 h ([2]; plasma, 0.187 mg/kg single i.v., 3.5 h, read-out: Plasma Conc.): 220 ± 20 nM; concentration at 8 h ([2]; plasma, 0.187 mg/kg single i.v., 8 h, read-out: Plasma Conc.): 40 ± 10 nM; concentration at 3.5 h ([2]; plasma, 0.375 mg/kg single i.v., 3.5 h (Table 3), read-out: Plasma Conc.): 470 ± 60 nM; concentration at 8 h ([2]; plasma, 0.375 mg/kg single i.v., 8 h (Table 3), read-out: Plasma Conc.): 80 ± 10 nM; concentration at 12 h ([2]; plasma, 0.375 mg/kg single i.v., 12 h (Table 3), read-out: Plasma Conc.): 50 ± 10 nM; concentration at 3.5 h ([2]; tumor, 0.093 mg/kg single i.v., 3.5 h, read-out: Tumor Conc.): 70 ± 20 nM; concentration at 8 h ([2]; tumor, 0.093 mg/kg single i.v., 8 h, read-out: Tumor Conc.): 60 ± 30 nM; concentration at 3.5 h ([2]; tumor, 0.187 mg/kg single i.v., 3.5 h, read-out: Tumor Conc.): 90 ± 20 nM; concentration at 8 h ([2]; tumor, 0.187 mg/kg single i.v., 8 h, read-out: Tumor Conc.): 120 ± 80 nM; concentration at 3.5 h ([2]; tumor, 0.375 mg/kg single i.v., 3.5 h (Table 3), read-out: Tumor Conc.): 230 ± 120 nM; concentration at 8 h ([2]; tumor, 0.375 mg/kg single i.v., 8 h (Table 3), read-out: Tumor Conc.): 140 ± 50 nM; concentration at 12 h ([2]; tumor, 0.375 mg/kg single i.v., 12 h (Table 3), read-out: Tumor Conc.): 110 ± 60 nM; compound levels in tumor ([2]; CT26 tumor-bearing mice, single i.v. dose): sustained levels in tumor
CCn1nc(C)cc1C(=O)Nc1nc2cc(C(N)=O)cc3c2n1C/C=C/Cn1c(NC(=O)c2cc(C)nn2CC)nc2cc(C(=O)N[C@H]4CC[C@H](C(=O)O)CC4)cc(c21)OC[C@@H](N1C2CCC1COC2)CO3 [Compound 14, (1S,4R)-4-((8S,E)-8-(3-oxa-8-azabicyclo[3.2.1]octan-8-yl)-12-carbamoyl-1,15-bis(1-ethyl-3-methyl-1H-pyrazole-5-carboxamido)-8,9,16,19-tetrahydro-7H-6,10-dioxa-2,14,15a,19a-tetraazacyclopentadeca[3,2,1-cd:8,9,10-c′d′]diindene-4-carboxamido)cyclohexane-1-carboxylic acid sodium salt] | 6.8 | 450 ± 70 | 90 ± 10 | 70 ± 60 | 170 ± 20 | 130 ± 20 | 160 ± 60 | 180 ± 60 | 1 to 10 | BLQ | 
CCn1nc(C)cc1C(=O)Nc1nc2cc(C(N)=O)cc3c2n1C/C=C/Cn1c(NC(=O)c2cc(C)nn2CC)nc2cc(C(=O)NCCCn4cc(C(=O)O)cn4)cc(c21)OCCCO3 [Compound 8, (E)-1-(3-(12-carbamoyl-1,15-bis(1-ethyl-3-methyl-1H-pyrazole-5-carboxamido)-8,9,16,19-tetrahydro-7H-6,10-dioxa-2,14,15a,19a-tetraazacyclopentadeca[3,2,1-cd:8,9,10-c′d′]diindene-4-carboxamido)propyl)-1H-pyrazole-4-carboxylic acid sodium salt] | 5.23 | 40 ± 10 | 20 ± 10 | 20 ± 10 | 90 ± 10 | 60 ± 10 | 60 |  | 1 to 10 | BLQ | Tumor Conc. [2, 10]: BLQ
CCn1nc(C)cc1C(=O)Nc1nc2cc(C(N)=O)cc3c2n1C/C=C/Cn1c(NC(=O)c2cc(C)nn2CC)nc2cc(C(=O)N[C@H]4CC[C@H](c5nnn[nH]5)CC4)cc(c21)OCCCO3 [Compound 6, (E)-N-((1R,4R)-4-(1H-tetrazol-5-yl)cyclohexyl)-1,15-bis(1-ethyl-3-methyl-1H-pyrazole-5-carboxamido)-8,9,16,19-tetrahydro-7H-6,10-dioxa-2,14,15a,19a-tetraazacyclopentadeca[3,2,1-cd:8,9,10-c′d′]diindene-4,12-dicarboxamide sodium salt] | 3.5 | 440 ± 140 | 130 ± 60 | 50 ± 10 | 290 ± 120 | 250 ± 40 | 200 ± 50 | 260 ± 30 | 1 to 10 | 0.01, BLQ, | 
